Assay results as given in the supplement of paper PMC11781733.
Where a name gives a salt, the structure may show the parent alone.

How the values were obtained:
Details in all cases: exposure time: 15 min to 3 h acute
[1] = tested on: Dugesia japonica; experiment: resting fraction in dark vs vehicle (difference in fraction x100 vs vehicle); higher = higher incidence or increase relative to vehicle control
Experimental: (§1)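 Adult asexual Dugesia japonica planarians (1 per well, 48-well plate, n=24 over technical triplicates) were exposed acutely (15 min to 3 h) to each compound (0.5% DMSO or water vehicle) and screened on a robotic platform for crawl-out, stickiness, body shape, phototaxis, noxious-heat scrunching and locomotion endpoints. Binary endpoints are incidence rate x100 normalised to in-plate vehicle controls. Continuous endpoints are the median response normalised to the plate vehicle median, as % change or difference. Negative incidences after vehicle subtraction were set to 0.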

[2] = tested on: Dugesia japonica; experiment: contracted body shape incidence (% planarians (vehicle-normalised)); higher = higher incidence or increase relative to vehicle control
Experimental: as §1

[3] = tested on: Dugesia japonica; experiment: anxiety (time in outer well region) vs vehicle (% change vs vehicle); higher = higher incidence or increase relative to vehicle control
Experimental: as §1

[4] = tested on: Dugesia japonica; experiment: speed in dark vs vehicle (% change vs vehicle); higher = higher incidence or increase relative to vehicle control
Experimental: as §1

[5] = tested on: Dugesia japonica; experiment: resting fraction in blue light vs vehicle (difference in fraction x100 vs vehicle); higher = higher incidence or increase relative to vehicle control
Experimental: as §1

[6] = tested on: Dugesia japonica; experiment: loss of heat-induced scrunching incidence (% planarians (vehicle-normalised)); higher = higher incidence or increase relative to vehicle control
Experimental: as §1

[7] = tested on: Dugesia japonica; experiment: any abnormal body shape incidence (% planarians (vehicle-normalised)); higher = higher incidence or increase relative to vehicle control
Experimental: as §1

[8] = tested on: Dugesia japonica; experiment: loss of phototaxis incidence (% planarians (vehicle-normalised)); higher = higher incidence or increase relative to vehicle control
Experimental: as §1

[9] = tested on: Dugesia japonica; experiment: stickiness incidence (% planarians (vehicle-normalised)); higher = higher incidence or increase relative to vehicle control
Experimental: as §1

[10] = tested on: Dugesia japonica; experiment: speed first 30 s blue light vs vehicle (% change vs vehicle); higher = higher incidence or increase relative to vehicle control
Experimental: as §1

[11] = tested on: Dugesia japonica; experiment: total locomotor bursts minus vehicle (bursts difference vs vehicle); higher = higher incidence or increase relative to vehicle control
Experimental: as §1

[12] = tested on: Dugesia japonica; experiment: corkscrew incidence (% planarians (vehicle-normalised)); higher = higher incidence or increase relative to vehicle control
Experimental: as §1

[13] = tested on: Dugesia japonica; experiment: crawl-out incidence (% planarians); higher = higher incidence or increase relative to vehicle control
Experimental: as §1, with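 “x100.” for “x100 normalised to in-plate vehicle controls.”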

[14] = tested on: Dugesia japonica; experiment: speed second 30 s blue light vs vehicle (% change vs vehicle); higher = higher incidence or increase relative to vehicle control
Experimental: as §1

[15] = tested on: Dugesia japonica; experiment: hyperkinesis incidence (% planarians (vehicle-normalised)); higher = higher incidence or increase relative to vehicle control
Experimental: as §1

[16] = tested on: Dugesia japonica; experiment: noxious heat displacement strength vs vehicle (% change vs vehicle); higher = higher incidence or increase relative to vehicle control
Experimental: as §1

[17] = tested on: Dugesia japonica; experiment: pharynx extrusion incidence (% planarians (vehicle-normalised)); higher = higher incidence or increase relative to vehicle control
Experimental: as §1

[18] = tested on: Dugesia japonica; experiment: C-shape incidence (% planarians (vehicle-normalised)); higher = higher incidence or increase relative to vehicle control
Experimental: as §1

Row | SMILES | resting fraction in dark [1] | contracted body shape incidence [2] | anxiety [3] | speed in dark [4] | resting fraction in blue light [5] | loss of heat-induced scrunching incidence [6] | any abnormal body shape incidence [7] | loss of phototaxis incidence [8] | stickiness incidence [9] | speed first 30 s blue light [10] | total locomotor bursts minus vehicle [11] | corkscrew incidence [12] | crawl-out incidence [13] | speed second 30 s blue light [14] | hyperkinesis incidence [15] | noxious heat displacement strength [16] | pharynx extrusion incidence [17] | C-shape incidence [18]
1 | Cc1ncc2n1-c1ccc(Cl)cc1C(c1ccccc1F)=NC2 [midazolam] (56.2 µM) | 22.7 | 12.5 | 7.1 | -34 | 2.61 | ≤ 0 | 33.3 | ≤ 0 | 4.17 | -29.6 | 2.5 | 0 | 0 | -10.2 | 20.8 | -25.6 | 0 | 0
2 | CC(NC(C)(C)C)C(=O)c1cccc(Cl)c1 (stereo not given) [bupropion] (31.6 µM) | 17.5 | 4.17 | 2.47 | -1.56 | 23.4 | 16.7 | 0 | 20.8 | ≤ 0 | -59.5 | -7.5 | 0 | 0 | -19.4 | 0 | -22.3 | 0 | 0
3 | CN(C)CCC[C@@]1(c2ccc(F)cc2)OCc2cc(C#N)ccc21 [escitalopram] (100 µM) | -4.57 | 0 | 1.47 | -3.87 | -0.46 | 25 | 0 | 16.7 | ≤ 0 | -13.7 | 1.75 | 0 | 0 | -2.15 | 0 | -34 | 0 | 0
4 | CCCCNc1c(C(=O)OCC)c(C)nc2c1cnn2CC [tracazolate hydrochloride] (31.6 µM) | 39.1 | 4.17 | -51.8 | -78.9 | 51 | 41.7 | 83.3 | 33.3 | ≤ 0 | -90.9 | 55.8 | 8.33 | 0 | -87.7 | 12.5 | -31.1 | 0 | 79.2
5 | CNCCC(Oc1ccc(C(F)(F)F)cc1)c1ccccc1 (stereo not given) [fluoxetine hydrochloride] (31.6 µM) | 10.3 | 0 | 10.3 | -58.6 | 6.49 | 8.33 | 0 | 16.7 | ≤ 0 | -70.9 | 9 | 0 | 0 | -66.4 | 0 | -49.6 | 0 | 0
6 | CNCC[C@H](Oc1cccc2ccccc12)c1cccs1 [s-duloxetine] (100 µM) | 55.5 | 34.8 | -57.1 | -50.6 | 72.3 | 73.9 | 82.6 | 56.5 | ≤ 0 | -84 | -4.5 | 0 | 4.17 | -87.5 | 0 | -66.8 | 65.2 | 13
7 | CNCCC(Oc1ccc(C(F)(F)F)cc1)c1ccccc1 (stereo not given) [fluoxetine hydrochloride] (10 µM) | -0.39 | 0 | 10.3 | -41.5 | -1.17 | 8.7 | 0 | ≤ 0 | ≤ 0 | -37.3 | 1 | 0 | 4.17 | -39.7 | 0 | -40 | 0 | 0
8 | O=C1CC2(CCCC2)CC(=O)N1CCCCN1CCN(c2ncccn2)CC1 [buspirone] (31.6 µM) | 3.7 | 0 | 7.76 | -11.1 | 34.3 | 62.5 | 16.7 | 54.2 | 16.7 | -64.5 | 3.5 | 0 | 0 | -74.1 | 16.7 | -57 | 0 | 0
9 | CNCCC(Oc1ccc(C(F)(F)F)cc1)c1ccccc1 (stereo not given) [fluoxetine hydrochloride] (100 µM) | 70.7 | 0 | 7.58 | -65.4 | 79.5 | 37.5 | 50 | 37.5 | ≤ 0 | -90.4 | 15.5 | 0 | 0 | -89.3 | 29.2 | -80.3 | 0 | 33.3
10 | O=C(CCCN1CCC(O)(c2ccc(Cl)cc2)CC1)c1ccc(F)cc1 [haloperidol] (100 µM) | 48.4 | 0 | 1.65 | -66.9 | 30.8 | 34.8 | 38.1 | 13 | ≤ 0 | -69.3 | 25 | 28.6 | 4.17 | -68.8 | 19 | -19.3 | 0 | 0
11 | CC(NC(C)(C)C)C(=O)c1cccc(Cl)c1 (stereo not given) [bupropion] (1000 µM) | 56.1 | 0 | 13.4 | -56.9 | 19.6 | 83.3 | 50 | ≤ 0 | 37.5 | -64.2 | -2.5 | 33.3 | 0 | -9.8 | 45.8 | -39.5 | 0 | 0
12 | O=C1CCc2ccc(OCCCCN3CCN(c4cccc(Cl)c4Cl)CC3)cc2N1 [aripiprazole] (100 µM) | 56.9 | 0 | -67.2 | -64.8 | 69.8 | 78.3 | 65.2 | 47.8 | ≤ 0 | -88.7 | 55 | 0 | 4.17 | -88.8 | 17.4 | -49 | 0 | 60.9
13 | O=C(CCCN1CC=C(n2c(=O)[nH]c3ccccc32)CC1)c1ccc(F)cc1 [droperidol] (3.16 µM) | 62.6 | 16.7 | -4.16 | -77.5 | 66.1 | 66.7 | 50 | 45.8 | 8.33 | -90.1 | 18.8 | 8.33 | 0 | -89.6 | 37.5 | -42.7 | 0 | 12.5
14 | CNCC[C@H](Oc1cccc2ccccc12)c1cccs1 [s-duloxetine] (3.16 µM) | -19 | 0 | 12 | 70.8 | -12.5 | 25 | 0 | ≤ 0 | 16.7 | 167 | -2.5 | 0 | 0 | 68.4 | 0 | -40.2 | 0 | 0
15 | O=C(CCCN1CC=C(n2c(=O)[nH]c3ccccc32)CC1)c1ccc(F)cc1 [droperidol] (10 µM) | 68.7 | 29.2 | -31.9 | -80 | 67.9 | 70.8 | 70.8 | 54.2 | ≤ 0 | -93.8 | 19.5 | 12.5 | 0 | -91.1 | 25 | -23.3 | 0 | 20.8
